The values that follow come from paper PMC10757720, “Impact of CRAMP-34 on Pseudomonas aeruginosa biofilms and extracellular metabolites” (Frontiers in Cellular and Infection Microbiology, 2023).

The test system of one test is PAO1. The experiment in a line: microbe, parasite or virus in culture. The format is cell-based, Pseudomonas aeruginosa. An excerpt: Supplement DataSheet_1.docx, table 1: Table S1 Minimum inhibitory concentrations of various drugs against PAO1 | column: MIC(μg/mL)
Test [1] relates to PAO1 planktonic and dispersed bacteria. Briefly: Inducible resistance, multi-step induction over 25 generations. Format: cell-based, Pseudomonas aeruginosa. The settings on record: for increase in the MIC value after induction: 25 continuous generations, induction with the agent alone at 1/4 MIC, consistent across planktonic and dispersed bacteria; for MIC values after co-induction with CRAMP-34: antibiotic at 1/4 MIC combined with CRAMP-34 at 1/4 MIC, 25 generations, vs antibiotic alone, planktonic and dispersed bacteria. The method, then: Bacterial resistance was induced in vitro using a modified multi-step method ([Zhu et al., 2017]). The method of obtaining dispersed bacteria was described previously ([Zhang et al., 2022]). Planktonic bacteria and biofilm dispersion bacteria were induced at the initial 1/4 MIC concentration of antimicrobial agents every 24 hours. The latest MIC was measured every 2 generations and the drug concentration was changed according to the latest results.

In the next test the test system is surface-attached biofilm. Particulars: exogenous addition of succinate and glutamate; ref Sauer et al., 2004; cited from earlier work.
A further test has as its system PAO1 preformed biofilms. Briefly: Effect of exogenous glutamate and succinate on PAO1 preformed biofilm biomass. Particulars: preformed 96-h-old biofilms, different concentrations, 37°C, 24 h; certain dose-dependent effect (one way ANOVA).
Setting [2] is: Pseudomonas aeruginosa, read-out: MIC.

Converted amounts (≈) assume the structure as drawn. Read-outs that look alike come from different tables or passages of the source. Positions of bridges follow the written chain, without caps; N, C: chain ends. Non-standard residues stand in square brackets, D forms with d. Residues, ends and D or L forms follow the SMILES beside them. No end group written: not given here. *: point of attachment. X1 = CC[C@H](C)CCCCC(=O)*; Dab = NCC[C@H](N)C(=O)O

Turning to `NCC[C@H](O)C(=O)N[C@@H]1C[C@H](N)[C@@H](O[C@H]2O[C@H](CN)[C@@H](O)[C@H](O)[C@H]2O)[C@H](O)[C@H]1O[C@H]1O[C@H](CO)[C@@H](O)[C@H](N)[C@H]1O` [Amikacin], the MIC with PAO1 (setting [2]) was determined as 0.25 µg/mL (≈ 0.427 µM).

Consider `CC[C@H]1OC(=O)[C@H](C)[C@@H](O[C@H]2C[C@@](C)(OC)[C@@H](O)[C@H](C)O2)[C@H](C)[C@@H](O[C@@H]2O[C@H](C)C[C@H](N(C)C)[C@H]2O)[C@](C)(O)C[C@@H](C)CN(C)[C@H](C)[C@@H](O)[C@]1(C)O` [Azithromycin], for which the MIC with PAO1 (setting [2]) was 16 µg/mL (≈ 21.4 µM).

`CCN1CCN(C(=O)N[C@@H](C(=O)N[C@@H]2C(=O)N3C(C(=O)O)=C(CSc4nnnn4C)CS[C@H]23)c2ccc(O)cc2)C(=O)C1=O` [Cefoperazone]: the MIC with PAO1 (setting [2]) worked out at 4 µg/mL (≈ 6.2 µM).

In the case of `CO/N=C(\C(=O)N[C@@H]1C(=O)N2C(C(=O)[O-])=C(C[n+]3cccc4c3CCCC4)CS[C@H]12)c1csc(N)n1.O=S(=O)(O)O` [Cefoquinol], the MIC against PAO1 is 2 µg/mL.

For `CC(C)(O/N=C(\C(=O)N[C@@H]1C(=O)N2C(C(=O)[O-])=C(C[n+]3ccccc3)CS[C@H]12)c1csc(N)n1)C(=O)O` [Ceftazidime], the MIC in the test on PAO1 (setting [2]) was 1 µg/mL (≈ 1.83 µM).

`O=C(O)c1cn(C2CC2)c2cc(N3CCNCC3)c(F)cc2c1=O` [Ciprofloxacin]: in the test on PAO1 (setting [2]), the MIC is 0.031 µg/mL (≈ 0.0936 µM). In addition, in test [1], the “increase in the MIC value after induction” value is given as “sixty-fourfold” and the “MIC values after co-induction with CRAMP-34” value was “significantly reduced”.

`CC[C@H](C)CCCCC(=O)N[C@@H](CCN)C(=O)N[C@H](C(=O)N[C@@H](CCN)C(=O)N[C@H]1CCNC(=O)[C@H]([C@@H](C)O)NC(=O)[C@H](CCN)NC(=O)[C@H](CCN)NC(=O)[C@H](CC(C)C)NC(=O)[C@@H](CC(C)C)NC(=O)[C@H](CCN)NC1=O)[C@@H](C)O` [Colistin] (X1-[Dab]T[Dab][Dab][Dab][dL]L[Dab][Dab]T; lactam 4-C (inferred); N-terminus assumed) came in with an MIC in the test with PAO1 of 0.25 µg/mL (≈ 0.214 µM). In test [1], the “increase in the MIC value after induction” value is “thirty-twofold” and the “MIC values after co-induction with CRAMP-34” value is given as “significantly reduced”.

Consider `CCN1CCN(c2cc3c(cc2F)c(=O)c(C(=O)O)cn3C2CC2)CC1` [Enrofloxacin], for which the MIC in the test on PAO1 (setting [2]) was determined as 0.5 µg/mL (≈ 1.39 µM).

As for `CNC(C)C1CCC(N)C(OC2C(N)CC(N)C(OC3OCC(C)(O)C(NC)C3O)C2O)O1` (centres unmarked) [Gentamicin], the MIC in the test on PAO1 (setting [2]) was determined as 0.5 µg/mL (≈ 1.05 µM).

Consider `C[C@@H](O)[C@H]1C(=O)N2C(C(=O)O)=C(SCCN=CN)C[C@H]12` [Imipenem], for which the MIC with PAO1 (setting [2]) was 2 µg/mL (≈ 6.68 µM).

Regarding `C[C@@H](O)[C@H]1C(=O)N2C(C(=O)O)=C(S[C@@H]3CN[C@H](C(=O)N(C)C)C3)[C@H](C)[C@H]12` [Meropenem], in the test on PAO1 (setting [2]), the MIC is 0.5 µg/mL (≈ 1.3 µM).

`CCN1CCN(C(=O)N[C@@H](C(=O)N[C@@H]2C(=O)N3[C@@H]2SC(C)(C)[C@@H]3C(=O)O)c2ccccc2)C(=O)C1=O` [Piperacillin]: the MIC in the test with PAO1 (setting [2]) was found to be 2 µg/mL (≈ 3.86 µM).

For `CC[C@H]1OC(=O)[C@H](C)[C@@H](O[C@H]2C[C@@](C)(OC)[C@@H](O)[C@H](C)O2)[C@H](C)[C@@H](O[C@@H]2O[C@H](C)C[C@H](N(C)C)[C@H]2O)[C@](C)(O)C[C@@H](C)/C(=N\OCOCCOC)[C@H](C)[C@@H](O)[C@]1(C)O` [Roxithromycin], the MIC in the test with PAO1 (setting [2]) stood at 512 µg/mL (≈ 612 µM).

Take `CN[C@H](CC(C)C)C(=O)N[C@H]1C(=O)N[C@@H](CC(N)=O)C(=O)N[C@H]2C(=O)N[C@H]3C(=O)N[C@H](C(=O)N[C@H](C(=O)O)c4cc(O)cc(O)c4-c4cc3ccc4O)[C@H](O)c3ccc(c(Cl)c3)Oc3cc2cc(c3O[C@@H]2O[C@H](CO)[C@@H](O)[C@H](O)[C@H]2O[C@H]2C[C@](C)(N)[C@H](O)[C@H](C)O2)Oc2ccc(cc2Cl)[C@H]1O` [Vancomycin]: the MIC with PAO1 (Pseudomonas aeruginosa) came to 1020 µg/mL (≈ 707 µM).

For `N[C@@H](CCC(=O)O)C(=O)O` [glutamate], in the test on surface-attached biofilm, the “reduction in surface-attached biofilm biomass” value is about 80%. In the test on PAO1 preformed biofilms, the “effect of exogenous addition on pre-biofilms (biomass)” value was “significant effects on eradicating pre-biofilms”.

Take `O=C(O)CCC(=O)O` [succinate]: the “reduction in surface-attached biofilm biomass” value in the test with surface-attached biofilm is about 80%. Besides, the “effect of exogenous addition on pre-biofilms (biomass)” value in the test on PAO1 preformed biofilms was “significant effects on eradicating pre-biofilms”.

Regarding “GLLRKGGEKIGEKLKKIGQKIKNFFQKLVPQPEQ [CRAMP-34]”, the MIC in the test on PAO1 stood at 31.25 µg/mL.
